Measurements: PubChem BioAssay AID2141 (Sanford-Burnham Center for Chemical Genomics, 2009)
The source made the active and inactive calls. The rule behind the calls is not given here.

Biological target: E3 ubiquitin-protein ligase SIAH1 (Homo sapiens) (UniProt Q8IUQ4)
Test: Siah-1 binding antagonists, dose response, biochemical, TR-FRET (AID 2141)
Details: TR-FRET biochemical assay

| SMILES | IC50 |
| --- | --- |
| CCN(CC)c1ccc(/C=c2\sc3nnc(-c4ccccc4Cl)n3c2=O)cc1 | > 200 µM (inactive) |
| CS(=O)(=O)N1CCN(c2ccc([N+](=O)[O-])c(SCc3ccco3)c2)CC1 | > 200 µM (inactive) |
| Cc1cc(C)c(C#N)c(Nc2ccccc2C)n1 | > 200 µM (inactive) |
| CC1CCN(S(=O)(=O)c2nnc(NC(=O)c3cccc(Cl)c3)s2)CC1 | > 200 µM (inactive) |
| O=C(Nc1ccc(S(=O)(=O)N2CCOCC2)cc1)c1ccc(=O)[nH]c1 | 1.89 µM |
| COCCOC(=O)c1sc(=S)n(CCOC)c1N | 10.6 µM |
| CC(C)COc1ccc(-c2nn(-c3ccccc3)cc2/C=C2/SC(=S)N(CC(=O)O)C2=O)cc1 | 3.91 µM |
| Nc1c(C(=O)NCc2ccco2)c2nc3ccccc3nc2n1CCc1ccccc1 | 1.77 µM |
| O=C(/C=C/c1ccco1)OCc1nnc(-c2ccccc2)o1 | 4.37 µM |
| O=C(O)CCN1C(=O)/C(=C/c2cn(-c3ccccc3)nc2-c2cccs2)SC1=S | inactive |
| CC12CCC(C(=O)NCc3ccc(Cl)cc3)(OC1=O)C2(C)C (configuration not stated) | > 200 µM (inactive) |
| O=C(O)CCCCN1C(=O)/C(=C\c2ccc(OCc3ccccc3)c(OCc3ccccc3)c2)SC1=S | 4.03 µM |
| Cc1cc(C)n2ncc(C(=O)Nc3ccc4c(c3)OCO4)c2n1 | inactive |
| CCOC(=O)C1=C(C)N=c2s/c(=C\c3ccc(OCC(=O)O)cc3)c(=O)n2C1c1ccc(Cl)cc1 (configuration not stated) | > 200 µM (inactive) |
| COc1ccc(-c2cnnn2-c2ccc(N)cc2)cc1OC | > 200 µM (inactive) |
| Cc1cc2cc(CNC(=O)c3ccc(S(=O)(=O)N4CCCCC4)cc3)ccc2n1C | 6.45 µM |
| CCNc1ccc(C(=O)O)cc1N | 3.96 µM |
| Cc1c(Cc2ccccc2)c(=O)oc2c(C)c(OCC(=O)N[C@@H](Cc3ccccc3)C(=O)O)ccc12 | 4.38 µM |
| CCN(CC)c1ccc(C=N/C(C#N)=C(\N)C#N)cc1 | > 200 µM (inactive) |
| Cc1cc(C)n(-c2ccc(Cl)c(C(=O)Nc3cc(C(F)(F)F)ccc3Cl)n2)n1 | > 200 µM (inactive) |
| N#C/C(=C\c1c(F)cccc1Cl)C(=O)NC1CC1 | > 200 µM (inactive) |
| CC(NC(=O)Nc1ccc(O)cc1)(C(F)(F)F)C(F)(F)F | inactive |
| O=C(Nc1cccc(Oc2ccc(C(=O)O)c(C(=O)O)c2)c1)c1ccc(-c2ccccc2)cc1 | 11.6 µM |
| S=c1[nH]nc(Cc2cccc3ccccc23)n1-c1ccccc1 | > 200 µM (inactive) |
| Cc1coc2c(C)c3oc(=O)c(CCC(=O)N[C@@H](C)C(=O)N[C@@H](Cc4ccccc4)C(=O)O)c(C)c3cc12 | 11.4 µM |
| COCCCn1c(N)c(C(=O)NCc2ccco2)c2nc3ccccc3nc21 | 2.31 µM |

| SMILES | IC50 |
| --- | --- |
| C[N+]1(CCNC(=O)/C=N/O)CCCCC1 | inactive |
| Cc1c(C(=O)O)sc2nc(CSc3ncc(C(F)(F)F)cc3Cl)[nH]c(=O)c12 | 7.65 µM |
| CC1CCCCC1NC(=O)CCS(=O)(=O)c1ccc2c(c1)NC(=O)CO2 (configuration not stated) | > 200 µM (inactive) |
| N#Cc1c(NC(=O)c2ccc(Br)o2)n(-c2ccccc2)c2nc3ccccc3nc12 | 3.73 µM |
| CC1CCN(S(=O)(=O)c2ccc3c(c2)c(=O)c(C(=O)NCc2ccccc2Cl)cn3C)CC1 | > 200 µM (inactive) |
| O=C(NCc1c(F)cccc1F)c1cc(COc2c(F)cccc2F)on1 | > 200 µM (inactive) |
| CN(C)CCOC(=O)CCc1ccccc1 | > 200 µM (inactive) |
| COc1ccc(C(C(=O)NCc2ccccc2)N(Cc2ccco2)C(=O)c2cnccn2)cc1 (configuration not stated) | > 200 µM (inactive) |
| CN(C)c1cccc2c(C=C(C#N)C#N)ccc(N(C)C)c12 | inactive |
| COc1cccc2cc(C(=O)N3CCc4ccccc43)c(=O)oc12 | > 200 µM (inactive) |
| N#CC1C=Cc2ccccc2N1C(=O)c1ccccc1 (configuration not stated) | > 200 µM (inactive) |
| Cc1ccc2c(c1)N(CC(=O)NCCc1ccc(Cl)cc1)C(=O)c1cccnc1O2 | > 200 µM (inactive) |
| COc1ccc(N=C2NC(=O)S/C2=C\c2ccc(N(C)C)cc2)cc1 | > 200 µM (inactive) |
| Oc1ccc(N=Cc2sc3ccccc3c2Cl)cc1 | 14.9 µM |
| Cc1ccc(-n2cccn2)c([C@@H]2C[C@H]3CN(C)C(=O)[C@]34CCCN24)c1 | > 200 µM (inactive) |
| COC(=O)C1C=C2c3cccc4[nH]cc(c34)CC2N(C)C1 (configuration not stated) | 1.85 µM |
| CC1CCN(C(=O)C2CCC(C)(C(=O)O)C2(C)C)CC1 (configuration not stated) | > 200 µM (inactive) |
| Cc1ccc(OCCCN2CCOCC2)cc1 | > 200 µM (inactive) |
| Cc1ccc(S(=O)(=O)NN=C2C3CC4CC(C3)CC2C4)cc1[N+](=O)[O-] | > 200 µM (inactive) |
| CCOC(=O)/C(C#N)=c1/s/c(=C2\C=Cc3ccccc3N2CC)c(=O)n1CC | > 200 µM (inactive) |
| CC(C)(C)c1ccc(C(CC(=O)O)NC(=O)Cc2ccc(F)cc2)cc1 (configuration not stated) | 4.55 µM |
| O=C(N/N=C/c1cccc(Br)c1)c1ccc(Br)cc1 | 2.54 µM |
| CCOC(=O)c1c(C)[nH]c2c1-c1ccccc1C(=O)C2=O | > 200 µM (inactive) |
| C[C@]12CCC3C(CC=C4C[C@@H](O)CC[C@@]43C)C1CCC2[C@]1(C)CCC(=O)O1 (some centres not stated) | > 200 µM (inactive) |
| O=C(Cn1cnc2scc(-c3ccccc3)c2c1=O)NCc1ccco1 | 7.29 µM |
| CCC(C)[C@H](NC(=O)N1CCn2c1nc1ccccc12)C(=O)NCCc1ccc(OC)c(OC)c1 (some centres not stated) | > 200 µM (inactive) |

| SMILES | IC50 |
| --- | --- |
| Fc1ccc(/C=N/NC(=S)Nc2cccnc2)cc1F | inactive |
| COC/C=C/C1=CC2=CC(=O)C(C)(OC(=O)c3ccco3)C(=O)C2=CO1 (configuration not stated) | 5.94 µM |
| CCC1=Nc2cc(C(=O)O)ccc2Sc2ccccc21 | inactive |
| CN1/C(=C\C=C\C2=[N+](C)c3ccc4ccccc4c3C2(C)C)C(C)(C)c2ccccc21 | > 200 µM (inactive) |
| CC1(C)Cc2c(sc(/N=C/N3CCCCCC3)c2C#N)C(C)(C)N1 | > 200 µM (inactive) |
| O=S(=O)(Nc1c(S(=O)(=O)c2ccccc2)c2nc3ccccc3nc2n1C1CCCCC1)c1ccccc1 | 2.09 µM |
| O=C(Nc1nc(-c2cc3ccccc3oc2=O)cs1)c1ccco1 | 2.39 µM |
| Cc1ccn2c(C(=O)CSc3ccc(Cl)cc3Cl)c(C)nc2c1 | > 200 µM (inactive) |
| O=S(=O)(O)c1cc(O)c2c(O)c(N=Nc3cc(Cl)ccc3O)c(S(=O)(=O)O)cc2c1 | 2.14 µM |
| O=c1ccc2c(-c3ccccc3)c3ccc(O)cc3oc-2c1 | > 200 µM (inactive) |
| CCCCN(Cc1cc2cc(OC)ccc2[nH]c1=O)S(=O)(=O)c1ccc(C)cc1 | 17.2 µM |
| Cc1ccccc1NC(=O)CN1C(=O)N/C(=C\c2ccccc2OCc2ccc(C(=O)O)cc2)C1=O | 5.04 µM |
| CC(=O)c1ccc(NC(=O)CC2Nc3cccc4cccc(c34)NC2=O)cc1 (configuration not stated) | 8.51 µM |
| CCCCn1c(NC(=O)c2ccc(Br)o2)c(C(=O)OCC)c2nc3ccccc3nc21 | 2.04 µM |
| CC1=C(C#N)c2nc(N)c(C#N)c(C)c2/C1=C\c1ccc(-c2ccccc2C(=O)O)o1 | > 200 µM (inactive) |
| COCCCNc1c2c3c(cccc3[nH]c1=O)C(=O)c1ccccc1-2 | > 200 µM (inactive) |
| O=S(=O)(Nc1cc2nc3ccccc3nc2n1Cc1ccccc1)c1ccc(Cl)cc1 | 6.05 µM |
| O=C(CC1Nc2cccc3cccc(c23)NC1=O)Nc1ccccc1 (configuration not stated) | 6.36 µM |
| COc1cccc(CCC(=O)N(C)C2CCCN(Cc3ccccc3F)C2)c1 (configuration not stated) | > 200 µM (inactive) |
| Cc1ccc(NC(=O)CCC(=O)NNC(=O)c2ccccc2[N+](=O)[O-])c(C)c1 | > 200 µM (inactive) |
| CCCCn1c(NC(=O)c2ccco2)c(S(=O)(=O)c2ccc(C)cc2)c2nc3ccccc3nc21 | > 200 µM (inactive) |
| CCOC(=O)C1(C)C=C(Nc2ccc(O)cc2)C(=O)N1c1ccc(O)cc1 (configuration not stated) | inactive |
| O=S(=O)(Nc1nc2ccccc2nc1Nc1ccc(N2CCOCC2)cc1)c1cc(Cl)ccc1Cl | > 200 µM (inactive) |
| O=c1[nH]c2ccc(S(=O)(=O)N3CCCCC3)cc2s1 | > 200 µM (inactive) |
| CSc1n[nH]c(NCc2ccc(Cl)cc2)n1 | > 200 µM (inactive) |
